Conditions: tetrofosmin kit with ascorbic acid radioprotectant, without air addition step; post preparation
Source text: The tetrofosmin kit may optionally comprise a radioprotectant, as defined above. […] Med. Comm., 21, 845-849 (2000)] and the Myoview™ Package Instructions.

CCOCC[PH+](CCOCC)CC[PH+](CCOCC)CCOCC.CCOCC[PH+](CCOCC)CC[PH+](CCOCC)CCOCC.[O]=[99Tc]=[O] [^99mTc-tetrofosmin, ^99mTc(O)2(tetrofosmin)2^+]
post-reconstitution stability: up to 12 hours
